Tests used:
velvetleaf [1] = assay: Test Example 4: herbicidal effect by soil treatment (Table 19, symbol M); assay type: in vivo, velvetleaf (Abutilon theophrasti)
Outline: (§1)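 Herbicidal effect was rated 3 weeks after treatment, using the scoring criteria of an earlier test. The compound, formulated as an emulsion and diluted in water to a set herbicide amount, had been sprayed uniformly on soil over freshly sown seeds. Growth took place in a greenhouse at 25° C. to 30° C.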

windgrass [2] = assay: Test Example 4: herbicidal effect by soil treatment (Table 19, symbol L); assay type: in vivo, windgrass (Apera spica-venti)
Outline: as §1

Italian ryegrass [3] = assay: Test Example 4: herbicidal effect by soil treatment (Table 19, symbol K); assay type: in vivo, Italian ryegrass (Lolium multiflorum)
Outline: as §1

Chinese sprangletop = assay: Test Example 3: herbicidal effect by foliage application, Wagner pot (Table 18, symbol D); assay type: in vivo, chinese sprangletop (Leptochloa chinensis)
Outline: (§2)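 Plants were sown in alluvial soil held under 0.1–0.5 cm standing water and grown 14 days in a greenhouse at 25–30 °C. An emulsifiable formulation, water-diluted to the set dose, was then sprayed onto the foliage, and effects were scored three weeks later using previously defined criteria.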

rice flat sedge = assay: Test Example 3: herbicidal effect by foliage application, Wagner pot (Table 18, symbol E); assay type: in vivo, rice flat sedge (Cyperus iria)
Outline: as §2

blackgrass [4] = assay: Test Example 4: herbicidal effect by soil treatment (Table 19, symbol J); assay type: in vivo, blackgrass (Alopecurus myosuroides); details: amount of applied herbicide 84 g/ha
Outline: as §1

southern crabgrass [5] = assay: Test Example 4: herbicidal effect by soil treatment (Table 19, symbol F); assay type: in vivo, southern crabgrass (Digitaria ciliaris)
Outline: as §1

wild oat [6] = assay: Test Example 4: herbicidal effect by soil treatment (Table 19, symbol I); assay type: in vivo, wild oat (Avena fatua)
Outline: as §1

persian speedwell [7] = assay: Test Example 4: herbicidal effect by soil treatment (Table 19, symbol R); assay type: in vivo, Persian speedwell (Veronica persica)
Text: [Test Example 4] Herbicidal Effect Test by Soil Treatment
Sterilized diluvial soil was placed in a plastic box having a length of 21 cm, a width of 13 cm, and a depth of 7 cm. The seeds of each of southern crabgrass, green foxtail, barnyard grass, wild oat, blackgrass, Italian ryegrass, windgrass, velvetleaf, redroot pigweed, lambsquarters, chickweed, false cleavers, persian speedwell, corn, soybean, rice, wheat, beet, and rapeseed were sowed in a spot-like manner and covered with the soil having a thickness of about 1.5 cm. Subsequently, the emulsion agent of the compound of the present invention prepared according to Formulation Example 2 was diluted with water so as to achieve a predetermined herbicide amount, and the diluted emulsion agent was uniformly applied to the surface of the soil with a small-sized spray. The plastic box was placed in a greenhouse at 25° C. to 30° C. for growth of the plants. Three weeks after the herbicide application, the effect of the herbicide on each plant was evaluated according to the criteria of Test Example 1.

barnyard grass [8] = assay: Test Example 4: herbicidal effect by soil treatment (Table 19, symbol H); assay type: in vivo, barnyard grass (Echinochloa crus-galli)
Outline: as §1

chickweed = assay: Test Example 4: herbicidal effect by soil treatment (Table 19, symbol P); assay type: in vivo, common chickweed (Stellaria media)
Outline: as §1

redroot pigweed = assay: Test Example 4: herbicidal effect by soil treatment (Table 19, symbol N); assay type: in vivo, redroot pigweed (Amaranthus retroflexus)
Outline: as §1

green foxtail [9] = assay: Test Example 4: herbicidal effect by soil treatment (Table 19, symbol G); assay type: in vivo, green foxtail (Setaria viridis)
Outline: as §1

lambsquarters [10] = assay: Test Example 4: herbicidal effect by soil treatment (Table 19, symbol O); assay type: in vivo, lambsquarters (Chenopodium album)
Outline: as §1

barnyard grass [11] = assay: Test Example 3: herbicidal effect by foliage application, Wagner pot (Table 18, symbol H); assay type: in vivo, barnyard grass (Echinochloa crus-galli)
Outline: as §2

Italian ryegrass [12] = assay: Test Example 5: herbicidal effect by foliage application, plastic box (Table 20, symbol K); assay type: in vivo, Italian ryegrass (Lolium multiflorum); details: foliage application, 320 g/ha, 3 weeks after application
Outline: (§3)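 Foliar spray test: emulsion formulation diluted in water to a set application rate, sprayed onto 14-day-old plants raised in diluvial soil at 25° C to 30° C under glass. Both herbicidal effect and crop effect rated visually three weeks later.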

windgrass [13] = assay: Test Example 5: herbicidal effect by foliage application, plastic box (Table 20, symbol L); assay type: in vivo, windgrass (Apera spica-venti); details: foliage application, 320 g/ha, 3 weeks after application
Outline: as §3

southern crabgrass [14] = assay: Test Example 5: herbicidal effect by foliage application, plastic box (Table 20, symbol F); assay type: in vivo, southern crabgrass (Digitaria ciliaris); details: foliage application, 320 g/ha, 3 weeks after application
Outline: as §3

velvetleaf [15] = assay: Test Example 5: herbicidal effect by foliage application, plastic box (Table 20, symbol M); assay type: in vivo, velvetleaf (Abutilon theophrasti); details: foliage application, 320 g/ha, 3 weeks after application
Outline: as §3

green foxtail [16] = assay: Test Example 5: herbicidal effect by foliage application, plastic box (Table 20, symbol G); assay type: in vivo, green foxtail (Setaria viridis); details: foliage application, 320 g/ha, 3 weeks after application
Outline: as §3

persian speedwell [17] = assay: Test Example 5: herbicidal effect by foliage application, plastic box (Table 20, symbol R); assay type: in vivo, Persian speedwell (Veronica persica); details: foliage application, 320 g/ha, 3 weeks after application
Outline: as §3

wild oat [18] = assay: Test Example 5: herbicidal effect by foliage application, plastic box (Table 20, symbol I); assay type: in vivo, wild oat (Avena fatua); details: foliage application, 320 g/ha, 3 weeks after application
Outline: as §3

barnyard grass [19] = assay: Test Example 5: herbicidal effect by foliage application, plastic box (Table 20, symbol H); assay type: in vivo, barnyard grass (Echinochloa crus-galli); details: foliage application, 320 g/ha, 3 weeks after application
Outline: as §3

lambsquarters [20] = assay: Test Example 5: herbicidal effect by foliage application, plastic box (Table 20, symbol O); assay type: in vivo, lambsquarters (Chenopodium album); details: foliage application, 320 g/ha, 3 weeks after application
Outline: as §3

blackgrass [21] = assay: Test Example 5: herbicidal effect by foliage application, plastic box (Table 20, symbol J); assay type: in vivo, blackgrass (Alopecurus myosuroides); details: foliage application, 320 g/ha, 3 weeks after application
Outline: as §3

[22] = amount of applied herbicide 84 g/ha

Q: What does the source list for `Cc1nn(C)c(=O)c(-c2c(-c3c(F)cc(F)cc3F)sc3ccc(F)cc23)c1O` [2-372]?
A: herbicidal effect, M: velvetleaf (velvetleaf [1]; [22]): 0 (Herbicidal rate of 5% or less (almost no effect)); herbicidal effect, L: windgrass (windgrass [2]; [22]): 0 (Herbicidal rate of 5% or less (almost no effect)); herbicidal effect, K: Italian ryegrass (Italian ryegrass [3]; [22]): 2 (Herbicidal rate of 20% or more and less than 40%); herbicidal effect on D: Chinese sprangletop (Chinese sprangletop; [22]): 4 (Herbicidal rate of 70% or more and less than 90%); herbicidal effect on E: rice flat sedge (rice flat sedge; [22]): 3 (Herbicidal rate of 40% or more and less than 70%); herbicidal effect, J: blackgrass (blackgrass [4]): 0 (Herbicidal rate of 5% or less (almost no effect)); herbicidal effect, F: southern crabgrass (southern crabgrass [5]; [22]): 0 (Herbicidal rate of 5% or less (almost no effect)); herbicidal effect, I: wild oat (wild oat [6]; [22]): 0 (Herbicidal rate of 5% or less (almost no effect)); herbicidal effect, R: persian speedwell (persian speedwell [7]; [22]): 0 (Herbicidal rate of 5% or less (almost no effect)); herbicidal effect, H: barnyard grass (barnyard grass [8]; [22]): 0 (Herbicidal rate of 5% or less (almost no effect)); herbicidal effect, P: chickweed (chickweed; [22]): 0 (Herbicidal rate of 5% or less (almost no effect)); herbicidal effect, N: redroot pigweed (redroot pigweed; [22]): 0 (Herbicidal rate of 5% or less (almost no effect)); herbicidal effect, G: green foxtail (green foxtail [9]; [22]): 0 (Herbicidal rate of 5% or less (almost no effect)); herbicidal effect, O: lambsquarters (lambsquarters [10]; [22]): 0 (Herbicidal rate of 5% or less (almost no effect)); herbicidal effect on H: barnyard grass (barnyard grass [11]; [22]): 4 (Herbicidal rate of 70% or more and less than 90%)

Q: What does the source list for `Cc1nn(C)c(=O)c(-c2c(-c3ccc(F)cc3)sc3ccc(F)cc23)c1OCC(=O)c1ccccc1` [2-008]?
A: effect on Italian ryegrass (K) (Italian ryegrass [12]): 3 (Herbicidal rate of 40% or more and less than 70%); effect on windgrass (L) (windgrass [13]): 0 (Herbicidal rate of 5% or less (almost no effect)); herbicidal effect rating, M: velvetleaf (velvetleaf [1]; 320 g/ha): 0 (Herbicidal rate of 5% or less (almost no effect)); effect on southern crabgrass (F) (southern crabgrass [14]): 0 (Herbicidal rate of 5% or less (almost no effect)); herbicidal effect rating, L: windgrass (windgrass [2]; 320 g/ha): 0 (Herbicidal rate of 5% or less (almost no effect)); effect on velvetleaf (M) (velvetleaf [15]): 1 (Herbicidal rate of 5% or more and less than 20%); herbicidal effect rating, K: Italian ryegrass (Italian ryegrass [3]; 320 g/ha): 0 (Herbicidal rate of 5% or less (almost no effect)); herbicidal effect on D (Chinese sprangletop), rating 0-5 (Chinese sprangletop; 320 g/ha): 1 (Herbicidal rate of 5% or more and less than 20%); herbicidal effect on E (rice flat sedge), rating 0-5 (rice flat sedge; 320 g/ha): 4 (Herbicidal rate of 70% or more and less than 90%); herbicidal effect rating, F: southern crabgrass (southern crabgrass [5]; 320 g/ha): 0 (Herbicidal rate of 5% or less (almost no effect)); herbicidal effect rating, I: wild oat (wild oat [6]; 320 g/ha): 0 (Herbicidal rate of 5% or less (almost no effect)); effect on green foxtail (G) (green foxtail [16]): 0 (Herbicidal rate of 5% or less (almost no effect)); effect on persian speedwell (R) (persian speedwell [17]): 3 (Herbicidal rate of 40% or more and less than 70%); herbicidal effect rating, R: persian speedwell (persian speedwell [7]; 320 g/ha): 0 (Herbicidal rate of 5% or less (almost no effect)); effect on wild oat (I) (wild oat [18]): 0 (Herbicidal rate of 5% or less (almost no effect)); herbicidal effect rating, H: barnyard grass (barnyard grass [8]; 320 g/ha): 0 (Herbicidal rate of 5% or less (almost no effect)); herbicidal effect rating, P: chickweed (chickweed; 320 g/ha): 0 (Herbicidal rate of 5% or less (almost no effect)); herbicidal effect rating, N: redroot pigweed (redroot pigweed; 320 g/ha): 4 (Herbicidal rate of 70% or more and less than 90%); herbicidal effect rating, G: green foxtail (green foxtail [9]; 320 g/ha): 0 (Herbicidal rate of 5% or less (almost no effect)); effect on barnyard grass (H) (barnyard grass [19]): 0 (Herbicidal rate of 5% or less (almost no effect)); effect on lambsquarters (O) (lambsquarters [20]): 1 (Herbicidal rate of 5% or more and less than 20%); herbicidal effect rating, O: lambsquarters (lambsquarters [10]; 320 g/ha): 0 (Herbicidal rate of 5% or less (almost no effect)); herbicidal effect on H (barnyard grass), rating 0-5 (barnyard grass [11]; 320 g/ha): 2 (Herbicidal rate of 20% or more and less than 40%); effect on blackgrass (J) (blackgrass [21]): 0 (Herbicidal rate of 5% or less (almost no effect))
